2 compounds from patent publication US6620910B1, “Peptide compounds analogues of the glucagon-like peptide-1 (7-37)” (Les Laboratoires Servier, priority 1998, dated 2003) can be followed below.

Series [1] deals with dipeptidyl peptidase IV (DPP IV) (Homo sapiens, UniProt P27487). In words: Metabolic stability towards dipeptidyl peptidase IV. Format: in vitro ADME. The method, then: Each compound is dissolved in 50 mg/ml of BSA in an aqueous 1% trifluoroacetic acid solution to obtain a concentration of 1 mg/ml.
Chain of dipeptidyl peptidase IV (DPP IV) (P27487 whole entry, species assumed): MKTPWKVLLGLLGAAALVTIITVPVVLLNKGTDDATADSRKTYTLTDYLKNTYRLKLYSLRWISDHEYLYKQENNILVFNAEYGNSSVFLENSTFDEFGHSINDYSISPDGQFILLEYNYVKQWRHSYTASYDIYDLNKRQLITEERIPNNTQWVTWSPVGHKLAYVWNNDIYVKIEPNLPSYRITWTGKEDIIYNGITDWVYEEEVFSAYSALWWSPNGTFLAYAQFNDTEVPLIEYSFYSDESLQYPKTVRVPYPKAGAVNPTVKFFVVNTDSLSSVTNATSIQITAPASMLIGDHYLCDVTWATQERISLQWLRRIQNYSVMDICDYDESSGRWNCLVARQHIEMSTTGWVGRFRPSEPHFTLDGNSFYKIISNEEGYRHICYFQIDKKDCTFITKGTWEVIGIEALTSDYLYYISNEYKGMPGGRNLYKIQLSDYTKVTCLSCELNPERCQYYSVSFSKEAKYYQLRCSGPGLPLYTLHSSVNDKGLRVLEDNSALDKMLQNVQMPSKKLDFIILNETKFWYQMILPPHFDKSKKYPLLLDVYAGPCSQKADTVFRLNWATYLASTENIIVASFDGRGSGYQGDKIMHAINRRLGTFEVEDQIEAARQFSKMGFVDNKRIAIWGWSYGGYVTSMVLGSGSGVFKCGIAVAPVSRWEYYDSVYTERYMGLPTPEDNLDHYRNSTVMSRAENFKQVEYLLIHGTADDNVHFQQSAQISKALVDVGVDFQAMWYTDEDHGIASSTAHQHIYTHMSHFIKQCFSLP
50 μl samples of the above-prepared solution containing 1 mg/ml of the peptide are added to 940 μl of 0.1M TRIS, pH 8.0. After analysis of the solution by HPLC to determine the amount of peptide, 10 μl of an aqueous solution containing 48 milli-units of dipeptidyl peptidase IV (DPP IV) are added, and the samples are analysed by HPLC at time T0 and after incubation for 10 minutes at 37° C.
The measurement results enable evaluation of the amount of peptide remaining and are expressed as a percentage in relation to T0.

The target of series [2] is T1, GLP-1 receptor (Rattus norvegicus, UniProt P32301).
T1 construct: endogenous in cells; host or cells: RIN T3 cells (membranes in A1, whole cells in A2)
T1 sequence (P32301 22-463): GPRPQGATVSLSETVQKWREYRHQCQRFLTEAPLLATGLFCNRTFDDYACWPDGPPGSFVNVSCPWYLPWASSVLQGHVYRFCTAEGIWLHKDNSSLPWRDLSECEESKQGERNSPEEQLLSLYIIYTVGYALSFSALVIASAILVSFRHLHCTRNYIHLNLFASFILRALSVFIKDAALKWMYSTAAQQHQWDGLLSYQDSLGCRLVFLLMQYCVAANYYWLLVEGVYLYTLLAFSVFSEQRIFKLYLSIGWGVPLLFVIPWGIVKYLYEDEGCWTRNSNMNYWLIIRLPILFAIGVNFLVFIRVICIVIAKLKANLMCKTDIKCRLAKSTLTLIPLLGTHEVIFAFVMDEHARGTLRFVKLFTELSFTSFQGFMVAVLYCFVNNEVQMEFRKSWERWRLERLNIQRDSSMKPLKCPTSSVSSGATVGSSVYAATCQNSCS
In words: Agonist character: cyclic AMP production in RIN T3 cells. Format: cell-based. The conditions noted are these: 20 minutes at 25° C., 100% = cAMP induced by 10^−8M GLP-1. The method, then:
The agonist character of the compounds of the invention was determined by measuring the production of cyclic AMP after activation of the receptor by the different products being tested.
RIN T3 cells are cultured for 6 days and the culture medium is chanced 1 day before the experiment. The cells (3×10^5 per well) are washed twice with DMEM before the addition of 0.5 ml of DMEM containing 1% BSA, 0.2 ml of IBMX and the peptide being tested. After incubation for 20 minutes at 25° C., the intracellular cAMP is extracted, succinylated and quantified by radioimmunoassay.
The reference value of 100% corresponds to the production of cAMP induced by a concentration of 10^−8M GLP-1 and the value 0% corresponds to the basal production in the absence of GLP-1.

The target in series [3] is T1, GLP-1 receptor. In words: GLP-1 receptor binding study (RIN T3 membranes, [125I]-GLP-1). Particulars: [125I]-GLP-1, 45 min at 37° C., read-out: affinity (IC50). The method, then:
The GLP-1 receptor binding studies were carried out using RIN T3 membranes in a […] Tris-HCl buffer pH 7.5 containing 4% BSA and […] of bacitracin. The membranes (20 to 30 μg) are incubated in a final volume of 500 μl with approximately 15 fmol of [125I]-GLP-1 (50,000 cpm) and the cold competitor for 45 min. at 37° C. The reaction is stopped by the addition of 750 μl of cold KRP buffer, pH 7.5, containing 3% BSA. The mixture is centrifuged at 12,000×g (4° C., 5 min). The residue is resuspended in 1 ml of cold KRP buffer and sedimented by a further centrifugation, and the radioactivity is measured. The results are expressed as IC50.

The next series in a line: in vitro. Particulars: human, plasma. Format: in vitro ADME.

Description for in vitro: An aliqout of 50 μg/ml of a solution containing the peptide to be studied is incubated in human plasma at 37° C. An HPLC linear analysis method allows measurement of the amount of peptide at time T0, then after incubation for 5, 10, 15, 30 and 60 minutes.

For orientation: amount remaining means the share of the starting amount still present when the sample was taken. As a reminder, the EC50 is the concentration giving half of the maximal effect. By IC50 is commonly meant the midpoint of a concentration-inhibition curve. `CC[C@H](C)[C@H](NC(=O)[C@H](Cc1ccccc1)NC(=O)[C@H](CCC(=O)O)NC(=O)[C@H](CCCCN)NC(=O)[C@H](C)NC(=O)[C@H](C)NC(=O)[C@H](CCC(N)=O)NC(=O)CNC(=O)[C@H](CCC(=O)O)NC(=O)[C@H](CC(C)C)NC(=O)[C@H](Cc1ccc(O)cc1)NC(=O)[C@H](CO)NC(=O)[C@H](CO)NC(=O)[C@@H](NC(=O)[C@H](CC(=O)O)NC(=O)[C@H](CO)NC(=O)[C@@H](NC(=O)[C@H](Cc1ccccc1)NC(=O)[C@@H](NC(=O)CNC(=O)[C@H](CCC(=O)O)NC(=O)[C@@H](C)NC(=O)[C@@H](N)Cc1c[nH]cn1)[C@@H](C)O)[C@@H](C)O)C(C)C)C(=O)N[C@@H](C)C(=O)N[C@@H](Cc1c[nH]c2ccccc12)C(=O)N[C@@H](CC(C)C)C(=O)N[C@H](C(=O)N[C@@H](CCCCN)C(=O)NCC(=O)NCC(N)=O)C(C)C` [Example 7] came in with an amount remaining at 10 min, 50 μg/ml in series [1] (isolated enzyme dpp iv, pH 8) of 100%. In addition, at GLP-1 receptor [2], the half-maximal effective concentration (EC50) is 1.02 nM. Also, the 50% inhibitory concentration (IC50) on GLP-1 receptor [3] was 0.33 nM. In the series “in vitro”, the amount remaining at 5 min, 50 μg/ml turned out to be 100%; the share remaining at 10 min, 50 μg/ml is 100%; the fraction remaining at 0.25 h, 50 μg/ml came to 100%; the share remaining at 0.5 h, 50 μg/ml worked out at 100%. Also, the amount remaining at 1 h, 50 μg/ml in “in vitro” was 100%.
With “Glucagon-Like Peptides-1 (7-37) and (7-36) NH2 [^tGLP1, reference compound]”, in series [1] (incubation time 10 minutes, 37° C., 48 milli-units DPP IV, 0.1M TRIS pH 8.0, relative to T0), the “DDP IV % peptide remaining” value worked out at 8%.
